Laboratory results published in article PMC10647553, “Evaluating the Anti-Melanoma Effects and Toxicity of Cinnamaldehyde Analogues” (Molecules, 2023).
Where two headings read alike, the source gives them in different places.

What was measured:
[1] = system: A375 cells; assay: A375 xenograft in nude mice; assay type: in vivo, BALB/c-nude mice
Procedure: The 8-week-old female BALB/c-nude mice (18–20 g, specific pathogen-free, SPF) were obtained from the Laboratory Animal Experimental Center of the Academy of Military Medical Sciences (SCXK2012-0004, Beijing, China), and were injected with A375 cells and siENO1-A375 cells (1 × 10^7), respectively. One weeks after the tumor formation, four groups were set up: the “negative control (NC)” group (A375 cells, injected with PBS/day); “siENO1” group (siENO1-A375 cells, injected with PBS/day); “Dacarbazine” group (A375 cells, injected with 10 mg/kg/day dacarbazine); and the “CAD-14” group (A375 cells, injected with 5 mg/kg/day CAD-14). The tumor volume was measured every three days and calculated as length × width^2/2. After two weeks, the mice were sacrificed.
Tumor tissues were isolated from the mice after sacrifice. Then, the tissues were fixed in 4% paraformaldehyde and embedded in paraffin. For immunohistochemistry staining, tissues were stained with Ki67 (GB111141, Servicebio, Wuhan, China). For immunofluorescent staining, tissues were stained with ENO1 (bs-3978R, Bioss, Beijing, China).
Figure 5 CAD-14 inhibited the growth of A375 cells in vivo. (A–C) The A375 cells were transfected with three different recombinant ENO1 retroviral vectors and an NC virus for 72 h; the effect of recombinant retrovirus on ENO1 expression were evaluated via fluorescence photography and Western blotting. Histograms show the intensity ratio. (n = 3). Values represent the means ± SD. ** p < 0.01 versus “NC” group. (D–F) Cells were injected subcutaneously into nude mice. Then, they were treated with Dacarbazine (10 mg/kg/day, as a positive control) or CAD-14 (5 mg/kg/day) for two weeks (the red arrow at day 7 represents the first day of treatment). The tumor volume was calculated (n = 5). (G,H) Immunofluorescent staining of Ki67 and ENO1 to detect proliferation ability and expression of ENO1 in tumor tissues, respectively. Values represent the means ± SD. * p < 0.05 versus “PBS” group.

[2] = system: rats; conditions: intravenous injection; cited from earlier work
[3] = system: hepatocytes; conditions: rat, in vivo, 1100 mg/kg; cited from earlier work
[4] = system: hepatocytes; conditions: mouse, in vivo; cited from earlier work
[5] = system: melanoma cell lines (A375, A875, SK-MEL-1); assay: Initial screening of analogues against melanoma cell lines; assay type: cell-based; conditions: for activity in initial screening: A375, A875, SK-MEL-1, 0–50 µM, 72 h, Figure 2A–C
Procedure: (§1) The HepG-2, HUVEC, L-02, HK-2, A375, A549, H8, U251, HeLa, Cal-27, and PANC-1 cells were maintained in a DMEM medium. The TSSCA, SK-MEL-1, and […] cells were cultured in an RPMI-1640 medium, and the A875 cells were cultured in a MEM medium. All cells were supplemented with 10% fetal bovine serum, 100 units/mL penicillin, and streptomycin at 37 °C in 5% CO2. The Cell Counting Kit-8 (CCK-8, bs-0764P, Bioss, Beijing, China) method was used to assay the cytotoxicity.
(§2) Figure 2 Effect of CA analogues in melanoma cells. (A–D) The different melanoma cell lines were treated with 0–50 µM analogues for 72 h, and then IC50 value was assayed (A dashed blue line: 50% inhibition rate; red box: analogues with high activity).

[6] = system: A375 cells; assay: CCK-8 cell viability, A375 melanoma cells; assay type: cell-based; conditions: Homo sapiens, A-375, 0–50 µM, 72 h
Procedure: as §1, §2

[7] = system: A875 cells; assay: CCK-8 cell viability, A875 melanoma cells; assay type: cell-based; conditions: 0–50 µM, 72 h
Procedure: as §1, §2

[8] = system: SK-MEL-1 cells; assay: CCK-8 cell viability, SK-MEL-1 melanoma cells; assay type: cell-based; conditions: Homo sapiens, 0–50 µM, 72 h
Procedure: as §1, §2

[9] = system: multiple types of cancer cells and normal cells; assay: Specificity towards different tumor and normal cell lines; assay type: cell-based; conditions: 0–200 µM, 72 h; Figure 3A
Procedure: as §1
(§3) Figure 3 CAD-14 inhibited the proliferation of A375 cells. (A) The different tumor and normal cell lines were treated with 0–200 µM CAD-14 for 72 h, and then IC50 value was assayed. (B) Cells were treated with 0–0.02 µM CAD-14 for 14 days, and Giemsa staining was used to conduct colony formation assays; the histogram depicts the number of colonies. (C,D) Cells were treated with 0–0.8 µM CAD-14 for 24 h; then, the related proteins were tested via Western blotting. Histograms depict the intensity ratio. (E,F) Cells were treated with 0–0.4 µM CAD-14 for 24 h, then the DNA content of the cells was determined with a flow cytometry system. Histograms show the percentage of cells in G0/G1, G2/M, and S phase. Values represent the means ± SD. * p < 0.05, ** p < 0.01 versus “Ctrl” group.

[10] = system: A375 cells; assay: Colony formation assay; assay type: cell-based; conditions: A375, 0–0.02 µM, 14 days, versus Ctrl
Procedure: The A375 cells were plated onto six-well plates (500 cells/well), and after 24 h, CAD-14 (0–0.02 µM) was added to the medium and incubated for an additional 14 days. Cells were fixed in methanol and stained with Giemsa. The colonies were then scored and photographed.
as §3

[11] = system: Bak, Bcl-2 and survivin in A375 cells; assay: Western blotting of apoptosis-related proteins; assay type: cell-based; conditions: A375, 0–0.8 µM, 24 h, dose-dependent
Procedure: (§4) The A375 cells were treated with CAD-14 (0–0.8 µM), alone or with indicated agents, for 24 h. Whole-cell extracts were loaded for SDS-PAGE gels depending on the target protein sizes, and were explored with protein-specific antibodies followed by HRP-conjugated secondary antibodies. Bands corresponding to the antibodies were detected via ECL chemiluminescence.
as §3

[12] = system: A375 cells; assay: Cell cycle analysis by flow cytometry; assay type: cell-based; conditions: A375, 0–0.4 µM, 24 h, concentration-dependent
Procedure: The A375 cells were incubated with CAD-14 (0–0.4 µM) for 24 h. The cells were collected, washed in PBS, and fixed in ice-cold 75% (v/v) ethanol overnight at –20 °C. The cells were re-suspended, and the DNA content was tested using flow cytometry.
as §3

[13] = target: T1, ENO1 (Homo sapiens, UniProt P06733); assay: Western blot and cellular thermal shift assay (CETSA) of ENO1; assay type: binding
T1 construct: endogenous in cells; host or cells: A375 cells (whole-cell extracts or cell lysates)
Procedure: as §4
In A375 cell lysates, CAD-14 (0.4 μM) was added for 24 h at different temperatures. Western blotting was used to quantify the effects on ENO1 protein levels.
(§5) Figure 4 Validation of the CAD-14 anti-melanoma pathway. (A) Cells were treated with 0–0.8 µM CAD-14 for 24 h, and the ENO1 was assayed via Western blotting. […] (C) Molecular docking analysis of ENO1 and CAD-14. (D) Cells were treated with 0–0.8 µM CAD-14 for 24 h, and the p-38/P-p38 were assayed via Western blot. Histograms show the intensity ratio. Values represent the means ± SD. * p < 0.05, ** p < 0.01 versus “Ctrl” group.

[14] = system: p38 pathway in A375 cells; assay: Western blot of p38/P-p38; assay type: cell-based; conditions: A375, 0–0.8 µM, 24 h
Procedure: as §4, §5

[15] = Developmental/acute toxicity test of zebrafish embryos; assay type: in vivo; conditions: AB wild-type, in vivo; zebrafish embryos, 96 h exposure; read-out: median death concentration (IC50)
From the text: (§6) The AB-wild-type adult zebrafish (three months old) were purchased from the Institute of Aquatic Biology, Chinese Academy of Sciences (Wuhan, China). During breeding, male and female fish were placed in separate spawning boxes at a 1:1 ratio. Then, early in the morning, they were mixed and laid eggs. During the exposure period, 96-well plates containing normal embryos were randomly selected and viewed daily under a light microscope to assess the developmental toxicity.
(§7) (A) The embryo morphology after CAD-14 treatment for 0–96 h. (B) Survival statistics in different time and concentration.

[16] = system: zebrafish embryos; assay: as above; assay type: in vivo; conditions: 96 h
From the text: as §6, §7

T1 sequence (P06733 whole entry): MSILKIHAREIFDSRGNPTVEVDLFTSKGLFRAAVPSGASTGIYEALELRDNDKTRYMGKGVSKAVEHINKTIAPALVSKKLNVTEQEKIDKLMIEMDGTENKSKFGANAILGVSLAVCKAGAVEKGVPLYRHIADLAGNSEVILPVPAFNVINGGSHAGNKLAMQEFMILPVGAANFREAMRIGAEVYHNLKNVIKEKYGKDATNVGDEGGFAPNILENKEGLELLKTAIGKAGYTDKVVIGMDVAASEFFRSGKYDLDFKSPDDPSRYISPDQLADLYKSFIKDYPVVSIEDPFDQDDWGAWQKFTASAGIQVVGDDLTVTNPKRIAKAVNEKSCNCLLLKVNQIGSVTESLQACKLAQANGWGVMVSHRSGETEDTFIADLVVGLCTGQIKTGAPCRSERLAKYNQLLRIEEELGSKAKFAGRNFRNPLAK

Which “Ki67-positive cells in tumor tissues” value ([1]; staining of tumor tissues, Figure 5G) does the source give for `O=C/C=C/c1ccccc1` [CA, Cinnamaldehyde] here?
The value was “obvious decrease in Ki67-positive cells”.

What about the “lethal dose (LD50)” value [2] of the same compound?
Its value is 74.8 mg/kg.

And the “micronucleus rate in hepatocytes” value [3]?
The value was “increased”.

What about the “micronucleus rate in hepatocytes” value [4] of the same compound?
The value was “increased”.

For `O=C/C=C/c1cccc2ccccc12` [CAD-2, (E)-3-(naphthalen-1-yl)acrylaldehyde], which “activity in initial screening” value [5] is on record?
Its value is “strong activity”.

For `O=C/C=C/c1ccccc1Br` [CAD-7, (E)-3-(2-bromophenyl)acrylaldehyde], which “activity in initial screening” value [5] is on record?
The value was “strong activity”.

For `O=C/C=C/c1cccc(Cl)c1` [CAD-10, (E)-3-(3-chlorophenyl)acrylaldehyde], which “activity in initial screening” value [5] is on record?
Its value is “strong activity”.

With `O=C/C=C/c1cccc(Cl)c1Cl` [CAD-12, (E)-3-(2,3-dichlorophenyl)acrylaldehyde] as the compound, how does the “activity in initial screening” value [5] read?
The value was “strong activity”.

With `O=C/C=C/c1c(F)c(F)c(F)c(F)c1F` [CAD-14, (E)-3-(perfluorophenyl)acrylaldehyde] as the compound, how does the IC50 [6] read?
The IC50 was 580 nM.

And the IC50 [7]?
Its IC50 is 650 nM.

And the IC50 [8]?
The IC50 was 820 nM.

What about the “activity in initial screening” value [5] of the same compound?
Its value is “strong activity”.

What about the “effect relative to CA” value ([5]; times stronger than CA) of the same compound?
The value was 80 times.

What about the “effect relative to positive drug DTIC” value ([5]; times stronger than DTIC, Figure 2D) of the same compound?
The value was roughly 15 times.

And the “specificity towards cell types” value [9]?
Its value is “inhibited A375 cells more effectively than other cancer cells and was less sensitive to normal cell lines”.

And the number of colonies [10]?
The number of colonies was “significantly reduced the number of colonies”.

And the “expression of anti-apoptotic protein Bcl-2” value [11]?
The value was “substantially diminished”.

What about the “expression of anti-apoptotic protein survivin” value [11] of the same compound?
Its value is “substantially diminished”.

And the “expression of pro-apoptotic protein Bak” value [11]?
The value was “strongly increased”.

And the cell cycle arrest [12]?
The cell cycle arrest was “markedly induced S phase arrest”.

What about the “thermal stability of ENO1 (temperature-dependent CETSA)” value ([13]; 0.4 μM, A375 cell lysates) of the same compound?
Its value is “decreased the thermal stability of ENO1”.

What about the “stability of ENO1 protein” value ([13]; Western blot 0–0.8 µM 24 h and CETSA) of the same compound?
The value was “changed the stability of ENO1 protein in a temperature- and dose-responsive manner”.

What about the “phosphorylation of p38” value [14] of the same compound?
Its value is “suppressed the phosphorylation of p38”.

What about the “total p38 protein levels” value [14] of the same compound?
The value was “did not affect its total protein levels”.

And the tumor growth ([1]; 5 mg/kg/day, two weeks, compared with PBS group)?
Its tumor growth is “can inhibit the tumor growth”.

What about the “tumor growth effect compared with dacarbazine” value ([1]; CAD-14 5 mg/kg/day vs dacarbazine 10 mg/kg/day) of the same compound?
Its value is “the effect was better than dacarbazine”.

What about the “ENO1 expression in tumor tissues” value ([1]; immunofluorescent staining, Figure 5H) of the same compound?
The value was “fewer ENO1 accumulated”.

What about the LC50 (median lethal concentration) at 96 h [15] of the same compound?
The LC50 (median lethal concentration) at 96 h was 83700 nM.

And the “Malformation Rates” value ([16]; 8 μM)?
Its value is 0.00%.

What about the Mortalities ([16]; 8 μM) of the same compound?
Its Mortalities is 0.00%.

What about the “Number of Deaths” value ([16]; 8 μM) of the same compound?
The value was 0.

And the “Number of Deformities” value ([16]; 8 μM)?
The value was 0.

What about the “Survival Number” value ([16]; 8 μM) of the same compound?
Its value is 20.

What about the “Malformation Rates” value ([16]; 16 μM) of the same compound?
The value was 0.00%.

What about the Mortalities ([16]; 16 μM) of the same compound?
The Mortalities was 0.00%.

What about the “Number of Deaths” value ([16]; 16 μM) of the same compound?
The value was 0.

What about the “Number of Deformities” value ([16]; 16 μM) of the same compound?
The value was 0.

What about the “Survival Number” value ([16]; 16 μM) of the same compound?
The value was 20.

What about the “Malformation Rates” value ([16]; 32 μM) of the same compound?
Its value is 0.00%.

And the Mortalities ([16]; 32 μM)?
Its Mortalities is 0.00%.

And the “Number of Deaths” value ([16]; 32 μM)?
The value was 0.

What about the “Number of Deformities” value ([16]; 32 μM) of the same compound?
Its value is 0.

What about the “Survival Number” value ([16]; 32 μM) of the same compound?
Its value is 20.

And the “Malformation Rates” value ([16]; 64 μM)?
Its value is 0.00%.

And the Mortalities ([16]; 64 μM)?
Its Mortalities is 0.00%.

What about the “Number of Deaths” value ([16]; 64 μM) of the same compound?
The value was 0.

What about the “Number of Deformities” value ([16]; 64 μM) of the same compound?
The value was 0.

What about the “Survival Number” value ([16]; 64 μM) of the same compound?
Its value is 20.

What about the Mortalities ([16]; 128 μM) of the same compound?
The Mortalities was 90.00%.

And the “Number of Deaths” value ([16]; 128 μM)?
Its value is 18.

What about the “Number of Deformities” value ([16]; 128 μM) of the same compound?
Its value is 0.

What about the “Survival Number” value ([16]; 128 μM) of the same compound?
Its value is 2.

For `O=C/C=C/c1cccnc1` [CAD-20, (E)-3-(pyridin-3-yl)acrylaldehyde], which “activity in initial screening” value [5] is on record?
Its value is “strong activity”.

For “(E)-3-(pyridin-3-yl)acrylaldehyde [CAD-19]”, which “activity in initial screening” value [5] is on record?
Its value is “strong activity”.
